From US20230107770A1, “METHOD OF ENHANCING IMMUNOTHERAPY USING ER STRESS PATHWAY INHIBITORS” (H. LEE MOFFITT CANCER CENTER AND RESEARCH INSTITUTE, INC., priority 2020, published 2023)

Key:
B16 tumors = test: s.c. B16 melanoma tumor model in mice; assay type: in vivo
tumor-MDSC [1] = test: Ex vivo suppression assay: tumor-MDSC co-cultured with primed CFSE-labeled T cells; assay type: cell-based, mice
Protocol: CD3^+ T cells were enriched using mouse or human T cell negative selection kits (MagniSort, Invitrogen) from the spleen and lymph nodes of C57BL/6 mice; or from purchased human buffy-coat units (One-Blood, Tampa, Fla.). Purity ranged between 95% and 99% as tested by flow cytometry. For antigen-specific priming studies, CD8^+ T cells were enriched using negative selection kits from the spleens of OT-I mice previously activated with OVA257-264 (SIINFEKL) for 48 hours. Tumor-MDSC were isolated from cellular suspensions of digested tumors followed by positive selection (MojoSort Streptavidin Nanobeads, Biolegend) using anti-Gr1 (Clone RB6-8C5, eBioscience) or anti-CD11b-biotinylated antibodies (Clone M1/70, StemCell Technologies, Vancouver). Also, M-MDSC (CD11b^+Gr1^+Ly6G^lowLy6C^high), PMN-MDSC (CD11b^+Gr1^+Ly6G^+Ly6C^low), macrophages (CD11b^+Gr1^negF4/80^+CD11c^neg), and myeloid DCs (CD11b^+Gr1^negF4/80^negCD11c^+) were sorted from tumors in a FACSAriaII (BD Biosciences).
(§1) Murine BM-MDSC (ratio 1:1/8) or tumor-MDSC (ratio 1:1/4) were co-cultured with negatively selected CD3^+ T cells in a 96 well plate bound α-CD3 and α-CD28 (1 μg/ml each, eBioscience) for 3 days. T cell proliferation was assessed with Carboxyfluorescein succinimidyl ester (CFSE) or Cell-trace violet (Invitrogen) dye dilution detected by flow cytometry. For human studies, MDSC were co-cultured with enriched CD3^+ T cells activated with soluble α-CD3 (1 μg/ml, clone OKT3) and α-CD28 (0.5 μg/ml, clone L293) for 3 days in a 96 well plate bound with goat anti-mouse IgG (10 μg/ml). Results are expressed as percentage of proliferating T cells, determined by the dilution of fluorescence compared with non-stimulated T cells.

CD8+ TILs = test: Flow cytometry of tumor-infiltrating CD8+ T cells from treated mice; assay type: in vivo
Protocol: All analysis was performed using FlowJo version 11 software.

[2] = Blood glucose and pancreatic islets in B16-bearing mice; assay type: in vivo; conditions: B16-bearing mice treated for a week; GSK2606414 25 mg/kg or AMG-44 12 mg/kg; day 17
From the text: Hematoxylin and Eosin (H&E) stained slides were scanned in an Aperio AT2 whole slide scanner (Leica Biosystems Inc.) equipped with a 20×0.7NA objective lens Images were created at 0.5 micron per pixel resolution and imported into Definiens Tissue Studio software v4.7 (Definiens AG) for analysis. Islets were found using a semi-automated segmentation process. First an automatic segmentation was applied to the image to create contour lines around objects within the image. Objects that contained islets were classified as such and remaining objects were classified as non-islet tissue. Next, adjacent objects of the same classification were merged together to clean up the segmentation. Segmented images were analyzed to provide the total area of islets Immunofluorescence for mouse insulin in pancreas tissue sections was performed as we described (Sultan et al., 2017). Labeled samples were scanned with a Zeiss Imager Z2 Upright FL microscope with a 10× objective lens using the tile scan function. Images were created at a
0.65 micron per pixel resolution and imported into the Definiens Tissue Studio software v4.7 (Definiens AG) for islet detection and analysis. Islets were detected using a semi-automated segmentation process. First, an automatic segmentation was applied to the image to detect the tissue. Then, the software was trained to detect islet vs. non-islet tissue within the image. In order to remove false detected islets caused by background staining, detected islets larger than 150,000 square microns and less than 600 square microns were reclassified to non-islet tissue. Segmented images were then analyzed to provide the fluorescent intensity of islets and total tissue area.

[3] = cited from earlier work
murine BM-MDSC = test: In vitro suppression assay with murine BM-MDSC; assay type: cell-based, mouse; conditions: for potential of Thaps-treated Eif2ak3^KO-Tek BM-MDSC to impair T cell proliferation: 3 hours pre-treatment, Resveratrol 100 μM or D,L-Sulphoraphane 20 μM
Protocol: (§2) Mouse BM-MDSC were generated after culturing BM precursors with GM-CSF and G-CSF (20 ng/ml each) for 4 days. In vitro generated MDSC were treated with either LLC tumor explant supernatants (TES, since day 0) or Thaps (200 nM, for the last 24 hours of culture). Human BM-MDSC were developed after culturing BM or peripheral blood precursors from healthy donors with GM-CSF and IL-6 (10 ng/ml each) for a period of 6 days (Thevenot et al., 2014). To induce UPR activation, MDSC were treated with either supernatants from renal cell carcinoma cells 786-0 (hTES) for 6 days (Rodriguez et al., 2009) or Thaps during the last 24 hours before collection (200 nM). In some experiments, MDSC were pre-incubated for 3 hours with Resveratrol (100 μM, Sigma-Aldrich), D,L-Sulphoraphane (20 μM), AMG-44 (5 μM), or TUDCA (500 nM) before treating with Thaps.
as §1

LLC tumors = test: s.c. LLC tumor model in mice; assay type: in vivo
Ifnβ1 mRNA = test: Quantitative PCR of Ifnβ1 mRNA in MDSC; assay type: cell-based; conditions: mice treated with SFRN vs untreated PERK-null mice
Protocol: Total RNA was isolated from MDSC using TRIzol (Life Technologies). Reverse transcription was performed using Verso cDNA Synthesis Kit (Thermo Scientific). Quantitative PCR reactions were prepared by using Bio-Rad SYBR green master mix and performed on an Applied Biosystems thermocycler (7900 HT) using primers described in Key Resources Table

tumor-MDSC [4] = conditions: LLC-bearing mice treated with SFRN
Protocol: For surface staining, cells were labelled with the appropriate antibodies in the presence of Fc blocker. For intracellular staining, surface-labeled cells were fixed with Cytofix/Cytoperm™ Solution (BD Biosciences), washed in Perm/Wash™ 1× solution, and labelled with intracellular antibodies. Cells were then washed in Perm/Wash™ 1× and PBS. Live vs. dead cell discrimination was performed prior to antibody labeling by Zombie Fixable Viability dye (Biolegend). Ex vivo intracellular staining for IL-12 and TNFα was performed on isolated cells after stimulation for 6 hours with LPS (1 μg/ml, Sigma Aldrich) in the presence of Golgi stop (0.8 μl/ml, BD Biosciences). For IFNγ staining, cells were incubated for 5 hours with phorbol myristate acetate (PMA, 750 ng/mL, Sigma Aldrich) and ionomycin (50 μg/mL, Sigma-Aldrich) in the presence and Golgi stop (0.8 μl/ml). For ER-tracker and Mitotracker staining, cells were probed with 100 nM of ER tracker green or 200 nM of Mitotracker green (Invitrogen) and then stained for surface markers. For Mitochondrial membrane potential, cells were stained with JC-1 flow cytometry assay kit (Cayman chemicals) followed by surface markers staining. ROS were detected by DCFDA (10 μM) or Dihydroethidium (DHE, 10 μM). Data acquisition was performed in a CytoFLEX II (Beckman Coulter) or LSRII (BD Biosciences). All analysis was performed using FlowJo version 11 software.

tumor-MDSC [5] = conditions: tumor-bearing Eif2ak3^KO-Lyz2 mice treated with SFRN vs untreated or Eif2ak3^Flox
Protocol: Oxygen consumption rate (OCR) through mitochondrial stress test and extracellular acidification rate (ECAR) by glycolysis stress profile were measured using a XF96 extracellular flux analyzer (Seahorse Bioscience). MDSC were plated onto CellTak pre-coated wells (1×10^5 cells/well in triplicate), and subjected to mitochondrial stress and glycolysis stress protocols using specific non-buffered XF base mediums. For OCR, cells were analyzed under basal conditions and in response to 2 μM oligomycin, 2 μM fluorocarbonyl-cyanide-phenylhydrazone (FCCP), and 0.5 μM rotenone. For ECAR, cells were plated in XF media lacking glucose and monitored under basal conditions and in response to 10 mM glucose, 10 μM oligomycin, and 100 mM 2-Deoxy-D-glucose (2-DG). Final values were obtained after protein normalization among the conditions.

human BM-MDSC = test: In vitro suppression assay with human BM-MDSC; assay type: cell-based
Protocol: as §2
as §1, with “For human studies, MDSC were co-cultured with enriched CD3^+ T cells activated with soluble α-CD3 (1 μg/ml, clone OKT3) and α-CD28 (0.5 μg/ml, clone L293) for 3 days in a 96 well plate bound with goat anti-mouse IgG (10 μg/ml).” left out

Arginase I = test: Immunoblot of Arginase I in tumor-MDSC; assay type: cell-based; conditions: mice treated with TUDCA vs vehicle
From the text: (§3) Equal protein amounts of total and nuclear cell lysates were electrophoresed in 8 or 10% Tris-Glycine gels (Novex-Invitrogen), transferred to PVDF membranes by iBlot™ Gel Transfer Device (ThermoFisher), and blotted with the corresponding primary and secondary antibodies described in Key Resources Table. For nuclear fraction isolation, cells were lysed using NE-PER Nuclear and Cytoplasmic extraction kit (ThermoFisher). Membrane-bound immune complexes were detected by ChemiDoc™ Imaging System (Bio-Rad, #17001401).

PERK = test: Immunoblot of PERK and phospho-PERK in MDSC; assay type: cell-based, mice
From the text: as §3

IRE1α = test: Immunoblot of IRE1α and phospho-IRE1α in MDSC; assay type: cell-based, mice
From the text: as §3

[6] = test system: tumor-MDSC from Pan02-OVA-ZsGreen tumors; test: Cross-presentation by tumor-MDSC from Pan02-OVA-ZsGreen tumors; assay type: cell-based; conditions: TUDCA-treated mice bearing Pan02-OVA-ZsGreen tumors
Protocol: For antigen loading experiments, MDSC were sorted from LLC tumors and then pulsed with 1 μg/ml complete ovalbumin (OVA). After 16 hours, cells were washed twice and 2.5×10^4 MDSC co-cultured with 1×10^5 CFSE-labeled naïve CD8^+ T cells from spleens of OT-I mice (ratio 0.25:1). Positive controls included co-cultures of OT-I T cells with GM-CSF plus IL-4-derived BM-DCs loaded with 1 μg/ml complete OVA. For TME cross-priming assays, 1.25×10^4 MDSC from Pan02-Ova-ZsGreen tumors were co-cultured with 5×10^4 naïve CD8^+ T cells (1/4:1) from spleens of OT-I mice and labelled with Cell-trace violet. Positive control wells included OT-I T cells co-cultured with GM-CSF plus IL-4-derived BM-DCs loaded with 1 μg/ml OVA257-264 peptide. T cell proliferation was measured after 3 days of co-culture.

[7] = LLC, SFRN 25 mg/kg i.p., 3 days per week
[8] = mice treated with TUDCA vs controls
[9] = LLC-bearing mice, Thaps 100 μg/kg i.p. vs vehicle
[10] = BM-MDSC, Thaps 200 nM, last 24 hours

Cn1cc(-c2ccc3c(c2)CCN3C(=O)Cc2cccc(C(F)(F)F)c2)c2c(N)ncnc21 [GSK-2606414]
tumor growth (B16 tumors; B16-bearing mice, GSK-2606414 25 mg/kg i.p. daily vs vehicle): Delayed tumor growth | tumor growth (B16 tumors; B16, daily i.p. GSK2606414 25 mg/kg or AMG-44 12 mg/kg from day 7): delayed tumor growth | immunoinhibitory activity of MDSC (tumor-MDSC [1]; MDSC from tumors of GSK-2606414 treated B16-bearing mice): lower immunoinhibitory activity of MDSC | frequency of IFNγ-producing CD8+ T cells in tumors (CD8+ TILs; B16, GSK2606414 25 mg/kg or AMG-44 12 mg/kg, 17 days post-tumor injection): amplified the frequency of IFNγ-producing CD8^+ T cells in tumors | glucose levels in the serum [2]: failed to show alterations in glucose levels | hyperglycemia at high doses ([3]; 150 mg/kg, orally twice a day, previous studies): induced hyperglycemia | limitation for therapeutic use ([3]; Yu et al., 2015): induction of hyperglycemia as a result of pancreatic islet degeneration

Oc1ccc(C=Cc2cc(O)cc(O)c2)cc1 [Resveratrol]
potential of Thaps-treated Eif2ak3^KO-Tek BM-MDSC to impair T cell proliferation (murine BM-MDSC): partially restored the potential

C[S+]([O-])CCCCN=C=S (stereo not drawn) [SFRN, Sulforaphane]
anti-tumor effects found in Eif2ak3^KO-Lyz2 mice (LLC tumors; [7]): disabled the anti-tumor effects | tumor progression in Eif2ak3^Flox mice (LLC tumors; [7]): delaying tumor progression | ROS levels and immunoregulatory potential of control MDSC (tumor-MDSC [1]; LLC-bearing Eif2ak3^Flox mice treated with SFRN): without affecting controls | immunoregulatory potential of tumor Eif2ak3^KO-Lyz2 MDSC (tumor-MDSC [1]; LLC-bearing mice treated with SFRN, 1:1/4): restored the immunoregulatory potential | potential of Thaps-treated Eif2ak3^KO-Tek BM-MDSC to impair T cell proliferation (murine BM-MDSC): partially restored the potential | Ifnβ1 mRNA in tumor-MDSC from Eif2ak3^KO-Lyz2 mice (Ifnβ1 mRNA): reduced Ifnβ1 mRNA levels | ROS levels in tumor Eif2ak3^KO-Lyz2 MDSC (tumor-MDSC [4]): reduced ROS levels | OCR of tumor-MDSC (tumor-MDSC [5]): elevated OCR

C[C@H](CCC(=O)NCCS(=O)(=O)O)[C@H]1CC[C@H]2[C@@H]3[C@@H](O)C[C@@H]4C[C@H](O)CC[C@]4(C)[C@H]3CC[C@]12C [TUDCA, Tauroursodeoxycholic acid]
anti-tumor actions in immunodeficient Rag1^KO mice (LLC tumors; LLC tumors, TUDCA, Rag1^KO vs wild type mice): not found | tumor growth (LLC tumors; established LLC tumors, TUDCA 250 mg/kg daily after day 6 vs vehicle): delayed tumor growth | tumor growth (B16 tumors; established B16 tumors, TUDCA 250 mg/kg daily after day 6 vs vehicle): delayed tumor growth | ability to block T cell proliferation (tumor-MDSC [1]; LLC tumor-MDSC pre-treated ex vivo with TUDCA for 24 hours): impaired the ability | ability of tumor-MDSC to block T cell proliferation (tumor-MDSC [1]; tumor-MDSC (1:1/4) from LLC or B16 bearing mice treated with TUDCA vs vehicle): lower ability to block T cell proliferation | ability to block T cell proliferation (murine BM-MDSC; murine BM-MDSC developed after exposing BM-iMC to TES, TUDCA in culture): impaired the ability | ability to block T cell proliferation (human BM-MDSC; human BM-MDSC conditioned with hTES, TUDCA in culture): impaired the ability | levels of Arginase I in tumor-MDSC (Arginase I): reduced levels of the inhibitory factor Arginase I | expression of phospho-PERK in tumor-MDSC (PERK; [8]): lower expression of phospho-PERK | expression of phospho-IRE1α in tumor-MDSC (IRE1α; [8]): lower expression of phospho-PERK and phospho-IRE 1α | expansion of recently activated CD69+ CD44+ CD8+ T cells in tumors (CD8+ TILs; B16-bearing mice treated with TUDCA): Higher expansion | EGSRNQDWL-H-2D^b-tetramer+ CD8+ T cells recognizing gp100 (CD8+ TILs; B16-bearing mice, single treatment): promoted the spontaneous expansion | recently activated CD69+ CD44+ CD8+ T cells (CD8+ TILs; B16-bearing mice, single treatment (anti-Gr1 experiment)): promoted the spontaneous expansion | expansion of recently activated CD69+ CD44+ CD8+ T cells in tumors (CD8+ TILs; LLC-bearing mice treated with TUDCA): Higher expansion | capacity of tumor-MDSC to prime OT-I T cell proliferation [6]: higher capacity to prime OT-I T cell proliferation | expression of SIINFEKL-bound H-2K^b in tumor-MDSC [6]: heightened expression

C/C=C(/C)C(=O)O[C@H]1C(C)=C2[C@H]([C@@H]1OC(=O)CCCCCCC)[C@@](C)(OC(C)=O)C[C@H](OC(=O)CCC)[C@@]1(O)[C@H]2OC(=O)[C@@]1(C)O [Thaps, Thapsigargin]
expansion of splenic-MDSC (LLC tumors; [9]): increased the expansion of splenic-MDSC | tumor progression (LLC tumors; [9]): promoted tumor progression | immunoregulatory potential of tumor-MDSC (tumor-MDSC [1]; tumor-MDSC from LLC-bearing mice treated with Thaps): elevated the immunoregulatory potential of tumor-MDSC | ability to block T cell proliferation (murine BM-MDSC; murine BM-MDSC, Thaps 200 nM, last 24 hours): enhanced ability to block T cell proliferation | ability to block T cell proliferation (human BM-MDSC; human BM-MDSC, Thaps, last 24 hours): enhanced ability to block T cell proliferation | total and phosphorylated PERK (PERK; [10]): upregulation of total and phosphorylated PERK | total and phosphorylated IRE1α (IRE1α; [10]): upregulation of total and phosphorylated PERK and IRE1α
